Test results as given in the NIST ThermoML archive (doi:10.1016/j.fluid.2019.06.004).
± gives the expanded uncertainty stated by the source.

Columns and labels:
[1] = Molar enthalpy of transition or fusion; details: DSC

Molar enthalpy of transition or fusion ([1]; Crystal 2): 0.363 ± 0.043 kcal/mol
Molar enthalpy of transition or fusion ([1]; Crystal): 6.09 ± 0.502 kcal/mol
Normal melting temperature (Crystal): 188.96 ± 2.2 °C
Triple point temperature (Crystal 2, DSC): 421.11 ± 1.2 K
SMILES: NC(=O)c1cnccn1 [pyrazinecarboxamide]
